Consider two molecules from US10413610B2, “Liquid formulation” (Luoda Pharma Pty Ltd, priority 2012, dated 2019).

For data set [1] the following is noted: cited from earlier work.
Details of data set [2]: species or system dogs. The conditions noted are these: dog, in vivo. The source says:
The results for both IVPs 3 and 4 are consistent with this value.

As for `COc1ccc(-c2nc3ccc(C4=NNC(=O)CC4C)cc3[nH]2)cc1` (racemic) [pimobendan, (RS)-6-[2-(4-methoxyphenyl)-1H-benzimidazol-5-yl]-5-methyl-4,5-dihydropyridazin-3(2H)-one], the “effect of addition of HPβCD on aqueous solubility of pimobendan” value in data set [1] (pH between 3 and 5) is “does not effectively increase the aqueous solubility”. The “solubility at pH 7” value in data set [1] (water, pH 7) was 0.1 mg per 100 mL. Also, the “volume of water in which 1 g of pimobendan dissolves” value in data set [1] (water) is reported as 10,000 mL.
As for `CCOC(=O)[C@H](CCc1ccccc1)N[C@H]1CCc2ccccc2N(CC(=O)O)C1=O` [benazepril, Benazepril], the “published AUC for benazeprilat scaled to a dose of 0.25 mg/kg” value in data set [2] worked out at 114.9 ng/h/mL.
